Earlier results, collected in patent publication US10709751B2, “Chardonnay grape seed extract” (SHAKLEE CORPORATION, priority 2014, dated 2020).

Columns and labels:
[1] = laboratory studies
neurons = conditions: laboratory studies

| Compound | crossing of the blood-brain barrier [1] | growth and development of neurons (neurons) |
| --- | --- | --- |
| Oc1cc(O)c2c(c1)O[C@H](c1ccc(O)c(O)c1)[C@H](O)C2 [epicatechin] | cross the blood-brain barrier | – |
| COc1cc(/C=C/c2ccc(O)cc2)cc(OC)c1 [pterostilbene] | cross the blood-brain barrier | – |
| chlorogenic acids | – | stimulate growth and development of neurons |
